Data published in PubChem BioAssay AID328 (DTP/NCI, 2004).
Several values for one entry are separate records, joined by “and”; a condition that tells them apart may be missing. Equal entries are not always repeated. Inconclusive results and toxic doses are left out.

Test system: BDF1 mice, P388 leukemia ip, median survival T/C
Assay: NCI In Vivo Anticancer Drug Screen. Data for tumor model P388 Leukemia (intraperitoneal) in B6D2F1 (BDF1) mice
Conditions: endpoint: median survival time, vehicle: saline, higher = longer survival
Method in brief: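 Antitumour effect was judged in vivo: survival in drug-treated mice, normalised to that of vehicle-dosed controls, gives the reported T/C.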

SMILES: Nc1ncnc2c1ccn2C1OC(CO)C(O)C1O (stereo not drawn)
- T/C (dose: 0.19 mg/kg/injection, schedule: Q03DX005 (ip)): 100 % of control
- T/C (dose: 0.25 mg/kg/injection, schedule: Q02DX005 (ip)): 108 % of control
- T/C (dose: 0.25 mg/kg/injection, schedule: Q#A X002 (ip)): 108 % of control
- T/C (dose: 0.31 mg/kg/injection, schedule: Q01DX010 (ip)): 122 % of control
- T/C (dose: 0.38 mg/kg/injection, schedule: Q03DX005 (ip)): 104 % of control
- T/C (dose: 0.5 mg/kg/injection, schedule: Q01DX006 (iv)): 95 % of control
- T/C (dose: 0.5 mg/kg/injection, schedule: Q01DX010 (oral)): 109 % of control
- T/C (dose: 0.5 mg/kg/injection, schedule: Q02DX004 (im)): 104 % of control
- T/C (dose: 0.5 mg/kg/injection, schedule: Q02DX005 (ip)): 112 % of control
- T/C (dose: 0.5 mg/kg/injection, schedule: Q04DX003 (ip)): 112 % of control
- T/C (dose: 0.5 mg/kg/injection, schedule: Q07DX002 (ip)): 112 % of control
- T/C (dose: 0.5 mg/kg/injection, schedule: Q#A X002 (ip)): 112 % of control
- T/C (dose: 0.75 mg/kg/injection, schedule: Q03DX005 (ip)): 118 % of control
- T/C (dose: 1.0 mg/kg/injection, schedule: Q01DX001 (ip)): 108 % of control
- T/C (dose: 1.0 mg/kg/injection, schedule: Q01DX006 (iv)): 95 % of control
- T/C (dose: 1.0 mg/kg/injection, schedule: Q01DX010 (ip)): 150 % of control
- T/C (dose: 1.0 mg/kg/injection, schedule: Q01DX010 (oral)): 100 % of control
- T/C (dose: 1.0 mg/kg/injection, schedule: Q01DX010 (sc)): 91 % of control and 104 % of control
- T/C (dose: 1.0 mg/kg/injection, schedule: Q02DX004 (im)): 91 % of control
- T/C (dose: 1.0 mg/kg/injection, schedule: Q04DX003 (ip)): 116 % of control
- T/C (dose: 1.0 mg/kg/injection, schedule: Q07DX002 (ip)): 116 % of control
- T/C (dose: 1.5 mg/kg/injection, schedule: Q03DX005 (ip)): 154 % of control
- T/C (dose: 1.5 mg/kg/injection, schedule: Q03DX010 (ip)): 172 % of control
- T/C (dose: 1.75 mg/kg/injection, schedule: Q07DX002 (ip)): 150 % of control
- T/C (dose: 2.0 mg/kg/injection, schedule: Q01DX001 (ip)): 116 % of control
- T/C (dose: 2.0 mg/kg/injection, schedule: Q01DX006 (iv)): 91 % of control
- T/C (dose: 2.0 mg/kg/injection, schedule: Q01DX010 (im)): 104 % of control
- T/C (dose: 2.0 mg/kg/injection, schedule: Q01DX010 (ip)): 108 % of control
- T/C (dose: 2.0 mg/kg/injection, schedule: Q01DX010 (oral)): 100 % of control
- T/C (dose: 2.0 mg/kg/injection, schedule: Q01DX010 (sc)): 100 % of control and 113 % of control
- T/C (dose: 2.0 mg/kg/injection, schedule: Q02DX004 (im)): 100 % of control
- T/C (dose: 2.0 mg/kg/injection, schedule: Q04DX003 (ip)): 120 % of control
- T/C (dose: 2.0 mg/kg/injection, schedule: Q07DX002 (ip)): 116 % of control
- T/C (dose: 2.0 mg/kg/injection, schedule: Q#A X002 (ip)): 95 % of control
- T/C (dose: 3.0 mg/kg/injection, schedule: Q03DX010 (ip)): 159 % of control
- T/C (dose: 4.0 mg/kg/injection, schedule: Q01DX010 (im)): 104 % of control
- T/C (dose: 4.0 mg/kg/injection, schedule: Q01DX010 (sc)): 112 % of control and 113 % of control
- T/C (dose: 4.0 mg/kg/injection, schedule: Q02DX004 (im)): 100 % of control
- T/C (dose: 4.0 mg/kg/injection, schedule: Q04DX003 (ip)): 100 % of control
- T/C (dose: 4.0 mg/kg/injection, schedule: Q07DX002 (ip)): 116 % of control
- T/C (dose: 7.0 mg/kg/injection, schedule: Q01DX001 (ip)): 150 % of control
- T/C (dose: 8.0 mg/kg/injection, schedule: Q01DX001 (oral)): 92 % of control
- T/C (dose: 8.0 mg/kg/injection, schedule: Q01DX010 (im)): 150 % of control
- T/C (dose: 8.0 mg/kg/injection, schedule: Q01DX010 (oral)): 91 % of control
- T/C (dose: 8.0 mg/kg/injection, schedule: Q01DX010 (sc)): 118 % of control
- T/C (dose: 16.0 mg/kg/injection, schedule: Q01DX001 (oral)): 92 % of control
- T/C (dose: 28.0 mg/kg/injection, schedule: Q01DX001 (ip)): 118 % of control
- T/C (dose: 31.5 mg/kg/injection, schedule: Q#A X020 (ip)): 104 % of control
- T/C (dose: 62.5 mg/kg/injection, schedule: Q#A X020 (ip)): 109 % of control
- T/C (dose: 125.0 mg/kg/injection, schedule: Q#A X020 (ip)): 118 % of control
- T/C (dose: 63.0 micrograms/kg/injection, schedule: Q01DX010 (ip)): 109 % of control
- T/C (dose: 125.0 micrograms/kg/injection, schedule: Q01DX010 (ip)): 104 % of control
- T/C (dose: 250.0 micrograms/kg/injection, schedule: Q01DX010 (ip)): 104 % of control
